Assay results as given in ChEMBL document CHEMBL5291721, “A preclinical secondary pharmacology resource illuminates target-adverse drug reaction associations of marketed drugs” (Nat Commun, 2023).

Legend:
[1] = target: T1, 5-hydroxytryptamine receptor 2C (Homo sapiens, UniProt P28335)
T1 sequence (P28335 whole entry): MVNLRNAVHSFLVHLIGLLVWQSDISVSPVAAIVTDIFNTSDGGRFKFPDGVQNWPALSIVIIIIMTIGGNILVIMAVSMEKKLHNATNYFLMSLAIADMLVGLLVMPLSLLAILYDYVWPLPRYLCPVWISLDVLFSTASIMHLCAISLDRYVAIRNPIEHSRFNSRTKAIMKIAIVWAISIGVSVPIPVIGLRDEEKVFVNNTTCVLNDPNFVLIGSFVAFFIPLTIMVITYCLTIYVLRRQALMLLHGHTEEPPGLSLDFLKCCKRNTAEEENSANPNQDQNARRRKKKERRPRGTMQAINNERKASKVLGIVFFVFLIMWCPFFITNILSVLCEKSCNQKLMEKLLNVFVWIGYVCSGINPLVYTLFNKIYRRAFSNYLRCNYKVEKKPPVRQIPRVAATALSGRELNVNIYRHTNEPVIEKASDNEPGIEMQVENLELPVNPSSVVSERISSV

[2] = target: T2, 5-hydroxytryptamine receptor 1A (Homo sapiens, UniProt P08908); format: functional, cell-based
T2 sequence (P08908 whole entry): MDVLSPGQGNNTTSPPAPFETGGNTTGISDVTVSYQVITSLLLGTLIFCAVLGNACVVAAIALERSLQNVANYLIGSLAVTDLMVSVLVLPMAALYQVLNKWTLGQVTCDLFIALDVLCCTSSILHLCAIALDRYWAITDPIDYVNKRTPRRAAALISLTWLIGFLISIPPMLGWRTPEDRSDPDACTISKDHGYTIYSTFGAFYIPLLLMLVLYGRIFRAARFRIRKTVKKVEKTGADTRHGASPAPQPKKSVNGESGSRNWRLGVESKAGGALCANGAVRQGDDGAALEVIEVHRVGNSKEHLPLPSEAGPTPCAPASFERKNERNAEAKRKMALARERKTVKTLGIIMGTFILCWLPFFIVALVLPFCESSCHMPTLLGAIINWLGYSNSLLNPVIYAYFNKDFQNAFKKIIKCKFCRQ

[3] = target: Sodium-dependent serotonin transporter (Homo sapiens, UniProt P31645)
Sodium-dependent serotonin transporter, sequence (P31645 whole entry): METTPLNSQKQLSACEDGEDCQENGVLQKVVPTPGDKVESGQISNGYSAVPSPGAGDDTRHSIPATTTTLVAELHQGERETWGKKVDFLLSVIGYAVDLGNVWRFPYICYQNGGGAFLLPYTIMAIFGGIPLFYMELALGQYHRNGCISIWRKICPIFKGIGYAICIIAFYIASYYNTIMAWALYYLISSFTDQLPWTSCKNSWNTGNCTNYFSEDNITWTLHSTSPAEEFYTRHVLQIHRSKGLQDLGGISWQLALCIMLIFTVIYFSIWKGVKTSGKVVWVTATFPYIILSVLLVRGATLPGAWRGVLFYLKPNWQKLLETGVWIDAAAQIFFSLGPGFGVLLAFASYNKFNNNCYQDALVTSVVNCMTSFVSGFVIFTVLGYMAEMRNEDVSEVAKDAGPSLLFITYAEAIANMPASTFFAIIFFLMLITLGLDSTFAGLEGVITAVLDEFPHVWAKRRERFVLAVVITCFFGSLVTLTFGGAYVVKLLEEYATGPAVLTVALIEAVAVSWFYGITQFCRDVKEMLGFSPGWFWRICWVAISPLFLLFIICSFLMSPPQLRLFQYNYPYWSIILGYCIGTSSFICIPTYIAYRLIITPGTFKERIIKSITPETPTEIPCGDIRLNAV

[4] = target: 5-hydroxytryptamine receptor 2B (Homo sapiens, UniProt P41595); format: functional, cell-based
5-hydroxytryptamine receptor 2B, sequence (P41595 whole entry): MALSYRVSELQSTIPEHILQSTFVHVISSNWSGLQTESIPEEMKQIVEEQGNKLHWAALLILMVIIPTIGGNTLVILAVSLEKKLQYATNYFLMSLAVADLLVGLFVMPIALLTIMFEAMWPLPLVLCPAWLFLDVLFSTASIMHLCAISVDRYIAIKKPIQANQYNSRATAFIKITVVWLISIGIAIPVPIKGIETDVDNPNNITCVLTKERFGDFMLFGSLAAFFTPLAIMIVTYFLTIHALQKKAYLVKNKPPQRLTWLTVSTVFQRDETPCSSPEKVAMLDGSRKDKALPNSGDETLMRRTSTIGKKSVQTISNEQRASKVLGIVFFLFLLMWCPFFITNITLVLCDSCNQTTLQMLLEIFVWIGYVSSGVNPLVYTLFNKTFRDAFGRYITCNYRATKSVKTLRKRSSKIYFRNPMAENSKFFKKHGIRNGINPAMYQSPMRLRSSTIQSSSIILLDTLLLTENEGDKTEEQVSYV

Progesterone receptor = target: T3, Progesterone receptor (Homo sapiens, UniProt P06401); format: functional
T3 sequence (P06401 whole entry): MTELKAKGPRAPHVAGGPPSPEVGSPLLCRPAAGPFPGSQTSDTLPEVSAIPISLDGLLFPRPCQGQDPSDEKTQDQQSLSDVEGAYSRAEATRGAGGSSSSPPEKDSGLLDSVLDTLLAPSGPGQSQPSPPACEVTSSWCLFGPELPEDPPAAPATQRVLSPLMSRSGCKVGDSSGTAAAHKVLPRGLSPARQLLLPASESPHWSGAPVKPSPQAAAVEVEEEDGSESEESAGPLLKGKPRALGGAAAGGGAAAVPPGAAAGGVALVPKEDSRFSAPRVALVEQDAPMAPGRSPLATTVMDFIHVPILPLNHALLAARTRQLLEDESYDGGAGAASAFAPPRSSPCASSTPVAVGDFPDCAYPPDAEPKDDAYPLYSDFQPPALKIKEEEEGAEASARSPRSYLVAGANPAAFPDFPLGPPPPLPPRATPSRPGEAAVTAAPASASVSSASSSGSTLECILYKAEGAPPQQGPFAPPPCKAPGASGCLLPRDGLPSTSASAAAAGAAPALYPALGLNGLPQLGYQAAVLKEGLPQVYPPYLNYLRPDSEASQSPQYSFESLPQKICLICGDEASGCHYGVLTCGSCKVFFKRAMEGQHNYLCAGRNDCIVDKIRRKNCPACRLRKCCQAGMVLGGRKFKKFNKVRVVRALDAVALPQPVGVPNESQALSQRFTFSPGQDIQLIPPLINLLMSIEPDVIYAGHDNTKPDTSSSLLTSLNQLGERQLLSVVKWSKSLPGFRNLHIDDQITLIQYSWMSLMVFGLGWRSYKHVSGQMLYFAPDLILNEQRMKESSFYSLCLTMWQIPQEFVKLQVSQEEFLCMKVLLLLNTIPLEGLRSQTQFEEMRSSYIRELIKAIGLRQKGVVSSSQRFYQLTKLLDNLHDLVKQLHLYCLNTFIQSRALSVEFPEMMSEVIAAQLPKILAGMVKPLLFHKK

Cannabinoid receptor 1 = Cannabinoid receptor 1 (Homo sapiens, UniProt P21554); format: functional, cell-based
Cannabinoid receptor 1, sequence (P21554 whole entry): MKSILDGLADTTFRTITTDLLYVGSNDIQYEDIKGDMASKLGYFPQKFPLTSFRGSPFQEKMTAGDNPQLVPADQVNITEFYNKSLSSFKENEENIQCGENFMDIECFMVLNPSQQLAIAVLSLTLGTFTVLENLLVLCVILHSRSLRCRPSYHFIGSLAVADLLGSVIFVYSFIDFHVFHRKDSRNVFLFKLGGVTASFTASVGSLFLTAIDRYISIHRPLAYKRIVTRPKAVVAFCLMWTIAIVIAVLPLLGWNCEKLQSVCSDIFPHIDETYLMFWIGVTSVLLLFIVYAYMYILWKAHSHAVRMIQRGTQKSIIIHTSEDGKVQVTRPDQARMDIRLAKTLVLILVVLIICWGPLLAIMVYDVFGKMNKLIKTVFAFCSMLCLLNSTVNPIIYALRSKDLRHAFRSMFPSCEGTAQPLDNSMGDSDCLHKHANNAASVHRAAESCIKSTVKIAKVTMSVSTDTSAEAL

[5] = target: T4, Alpha-1A adrenergic receptor (Homo sapiens, UniProt P35348); format: functional, cell-based
T4 sequence (P35348 whole entry): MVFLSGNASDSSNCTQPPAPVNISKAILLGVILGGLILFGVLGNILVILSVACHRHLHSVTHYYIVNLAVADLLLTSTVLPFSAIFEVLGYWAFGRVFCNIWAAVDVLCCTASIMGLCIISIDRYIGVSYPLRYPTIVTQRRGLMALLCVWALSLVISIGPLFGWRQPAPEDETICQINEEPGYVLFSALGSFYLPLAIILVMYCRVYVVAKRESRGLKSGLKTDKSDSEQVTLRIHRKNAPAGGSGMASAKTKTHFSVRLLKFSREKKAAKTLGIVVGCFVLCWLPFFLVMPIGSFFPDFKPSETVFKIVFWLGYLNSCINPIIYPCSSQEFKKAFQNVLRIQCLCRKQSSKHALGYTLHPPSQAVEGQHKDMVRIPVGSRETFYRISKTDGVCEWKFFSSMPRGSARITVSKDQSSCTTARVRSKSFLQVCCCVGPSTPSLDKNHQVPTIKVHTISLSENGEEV

[6] = target: T5, Muscarinic acetylcholine receptor M1 (Homo sapiens, UniProt P11229); format: functional
T5 sequence (P11229 whole entry): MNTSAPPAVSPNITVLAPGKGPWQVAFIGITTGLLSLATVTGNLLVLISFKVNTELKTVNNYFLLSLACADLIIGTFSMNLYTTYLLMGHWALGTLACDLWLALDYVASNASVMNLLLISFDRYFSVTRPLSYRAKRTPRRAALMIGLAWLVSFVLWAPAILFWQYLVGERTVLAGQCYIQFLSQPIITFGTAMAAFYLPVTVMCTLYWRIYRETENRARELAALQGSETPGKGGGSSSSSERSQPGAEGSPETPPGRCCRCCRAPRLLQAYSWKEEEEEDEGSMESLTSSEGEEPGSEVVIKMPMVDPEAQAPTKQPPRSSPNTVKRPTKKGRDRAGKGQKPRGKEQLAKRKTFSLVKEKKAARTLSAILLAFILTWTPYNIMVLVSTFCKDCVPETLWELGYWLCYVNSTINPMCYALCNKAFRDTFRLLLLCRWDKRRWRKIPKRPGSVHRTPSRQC

[7] = target: Gamma-aminobutyric acid receptor subunit alpha-1 (Rattus norvegicus, UniProt P62813)
Gamma-aminobutyric acid receptor subunit alpha-1, sequence (P62813 whole entry): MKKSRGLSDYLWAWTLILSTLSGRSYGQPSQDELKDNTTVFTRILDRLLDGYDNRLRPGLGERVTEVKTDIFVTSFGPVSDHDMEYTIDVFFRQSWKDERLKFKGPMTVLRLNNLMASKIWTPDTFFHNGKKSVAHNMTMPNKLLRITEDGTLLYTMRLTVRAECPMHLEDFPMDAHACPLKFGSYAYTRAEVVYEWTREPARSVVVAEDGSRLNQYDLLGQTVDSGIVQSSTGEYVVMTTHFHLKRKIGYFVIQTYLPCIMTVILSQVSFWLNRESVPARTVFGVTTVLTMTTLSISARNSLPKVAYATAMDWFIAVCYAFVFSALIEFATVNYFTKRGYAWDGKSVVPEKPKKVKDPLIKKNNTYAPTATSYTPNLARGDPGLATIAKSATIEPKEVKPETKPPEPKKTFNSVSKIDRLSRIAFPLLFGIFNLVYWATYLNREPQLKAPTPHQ
Also: assay procedure not described here.

Row | AC50 [1] [µM] | AC50 [2] [µM] | AC50 [3] [µM] | AC50 [4] [µM] | AC50 (Progesterone receptor) [µM] | AC50 (Cannabinoid receptor 1) [µM] | AC50 [5] [µM] | AC50 [6] [µM] | AC50 [7] [µM] | Structure (SMILES)
1 | > 30 | > 30 | 3.4 | 14 | > 30 | > 30 | > 30 | 11 | > 30 | COc1cc2c(Nc3ccc(Br)cc3F)ncnc2cc1OCC1CCN(C)CC1 [VANDETANIB]
2 | > 30 | > 10 | 12.2 | > 10 | > 10 | > 30 | > 30 | > 10 | > 10 | C=CC(N)CCC(=O)O (stereo not drawn) [VIGABATRIN]
